Results published in patent US20250340557A1, “PYRIMIDINE DERIVATIVE” (ASKA PHARMACEUTICAL CO., LTD., priority 2022, published 2025).

What follows are compounds tested against T1, human mPGES-1 (Homo sapiens, UniProt O14684) (assay: Test for mPGES-1 inhibitory activity (microsomal enzyme, PGE2 EIA)). Conditions: microsomes from COS-1 cells transfected with human mPGES-1 cDNA; substrate PGH2 1 μM; 4° C., 4 minutes; PGE2 measured by EIA; read-out: h mPGES1 IC50.
T1 construct: made in house; host or cells: COS-1 cells (transient transfection; microsomal fraction used as enzyme)
T1 sequence (O14684 1-152): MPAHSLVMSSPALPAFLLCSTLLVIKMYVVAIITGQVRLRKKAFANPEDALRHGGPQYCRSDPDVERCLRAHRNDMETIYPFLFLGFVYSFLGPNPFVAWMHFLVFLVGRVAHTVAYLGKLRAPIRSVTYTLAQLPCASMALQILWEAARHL
Assay type: biochemical
Protocol: Test Example 1: Test for mPGES-1 Inhibitory Activity
Microsomes were prepared from COS-1 cells transiently transfected with a plasmid containing human mPGES-1 cDNA, and used as mPGES-1 enzyme. The mPGES-1 enzyme was diluted with a sodium phosphate buffer (pH 7.2) containing reduced glutathione (2.5 mM) and EDTA (1 mM), DMSO or a DMSO solution of a test compound (final concentration of DMSO was 2%) was added to the enzyme, and the mixture was preincubated at 4° C. for 15 minutes. Then, PGH2 (Prostaglandin H2) as the substrate was added at a final concentration of 1 μM to start the enzymatic reaction, and after incubation at 4° C. for 4 minutes, a solution of ferric chloride (25 mM) and citric acid (50 mM) was added to terminate the enzymatic reaction. Generated PGE2 (Prostaglandin E2) was measured by using Prostaglandin E2 Express EIA Kit (Cayman Chemical). IC50 values were determined by using a standard method.

IC50	Compound
< 1 nM	Cc1cc(=O)[nH]c(-c2c(C(F)(F)F)ccc(CNC(=O)C3CCN(c4ccc(Cl)c(Cl)c4)CC3)c2F)n1 [Example 86, 1-(3,4-dichlorophenyl)-N-[2-fluoro-3-(4-methyl-6-oxo-1,6-dihydropyrimidin-2-yl)-4-(trifluoromethyl)benzyl]piperidine-4-carboxamide]
< 1 nM	Cc1nc(-c2c(C(F)(F)F)ccc(CNC(=O)C3CCN(c4ncc(C(F)(F)F)cc4F)CC3)c2F)[nH]c(=O)c1F [Example 48, N-[2-fluoro-3-(5-fluoro-4-methyl-6-oxo-1,6-dihydropyrimidin-2-yl)-4-(trifluoromethyl)benzyl]-1-[3-fluoro-5-(trifluoromethyl)pyridin-2-yl]piperidine-4-carboxamide]
< 1 nM	O=C(NCc1ccc(C(F)(F)F)c(-c2nc(C(F)(F)F)cc(=O)[nH]2)c1F)C1CCN(c2cccc(Cl)c2)CC1 [Example 62, 1-(3-chlorophenyl)-N-{2-fluoro-3-[6-oxo-4-(trifluoromethyl)-1,6-dihydropyrimidin-2-yl]-4-(trifluoromethyl)benzyl}piperidine-4-carboxamide]
< 1 nM	O=C(NCc1ccc(C(F)(F)F)c(-c2nc(C(F)(F)F)cc(=O)[nH]2)c1F)C1CN(c2ccc(C(F)(F)F)cn2)C1 [Example 25, N-{2-fluoro-3-[6-oxo-4-(trifluoromethyl)-1,6-dihydropyrimidin-2-yl]-4-(trifluoromethyl)benzyl}-1-[5-(trifluoromethyl)pyridin-2-yl]azetidine-3-carboxamide]
< 1 nM	O=c1cc(C(F)(F)F)nc(-c2c(C(F)(F)F)ccc(CNC(=O)[C@H]3CC[C@H](OCc4cccc(Cl)c4)CC3)c2F)[nH]1 [Example 100, trans-4-[(3-chlorobenzyl)oxy]-N-{2-fluoro-3-[6-oxo-4-(trifluoromethyl)-1,6-dihydropyrimidin-2-yl]-4-(trifluoromethyl)benzyl}cyclohexane-1-carboxamide]
19 nM	CCc1nc(-c2c(C(F)(F)F)ccc(CNC(=O)[C@H]3CC[C@H](OCc4ccc(Cl)cc4)CC3)c2F)[nH]c(=O)c1F [Example 125, trans-4-[(4-chlorobenzyl)oxy]-N-[3-(4-ethyl-5-fluoro-6-oxo-1,6-dihydropyrimidin-2-yl)-2-fluoro-4-(trifluoromethyl)benzyl]cyclohexane-1-carboxamide]
5.2 nM	O=c1cc(C(F)(F)F)nc(-c2c(C(F)(F)F)ccc(CNC(=O)[C@H]3CC[C@H](OCc4ccc(F)cc4F)CC3)c2F)[nH]1 [Example 114, trans-4-[(2,4-difluorobenzyl)oxy]-N-{2-fluoro-3-[6-oxo-4-(trifluoromethyl)-1,6-dihydropyrimidin-2-yl]-4-(trifluoromethyl)benzyl}cyclohexane-1-carboxamide]
2.9 nM	O=c1cc(C(F)(F)F)nc(-c2c(C(F)(F)F)ccc(CNC(=O)[C@H]3C[C@@H](OCc4ccccc4Cl)C3)c2F)[nH]1 [Example 137, cis-3-[(2-chlorobenzyl)oxy]-N-{2-fluoro-3-[6-oxo-4-(trifluoromethyl)-1,6-dihydropyrimidin-2-yl]-4-(trifluoromethyl)benzyl}cyclobutane-1-carboxamide]
< 1 nM	Cc1nc(-c2c(C(F)(F)F)ccc(CNC(=O)C3CCN(c4cccc(C(F)(F)F)c4)CC3)c2F)[nH]c(=O)c1F [Example 97, N-[2-fluoro-3-(5-fluoro-4-methyl-6-oxo-1,6-dihydropyrimidin-2-yl)-4-(trifluoromethyl)benzyl]-1-[3-(trifluoromethyl)phenyl]piperidine-4-carboxamide]
27 nM	CCc1nc(-c2c(C(F)(F)F)ccc(CNC(=O)[C@H]3CC[C@H](OCc4ccc(F)c(F)c4)CC3)c2F)[nH]c(=O)c1F [Example 133, trans-4-[(3,4-difluorobenzyl)oxy]-N-[3-(4-ethyl-5-fluoro-6-oxo-1,6-dihydropyrimidin-2-yl)-2-fluoro-4-(trifluoromethyl)benzyl]cyclohexane-1-carboxamide]

Same assay, conditions: microsomes of COS-1 cells transfected with human mPGES-1 cDNA; PGH2 1 μM; 4° C., 4 minutes; PGE2 by EIA; read-out: h mPGES1 IC50

IC50	Compound
< 1 nM	CCc1cc(=O)[nH]c(-c2c(C(F)(F)F)ccc(CNC(=O)[C@H]3C[C@H](OCc4ccc(Cl)cc4F)C3)c2F)n1 [Example 202, trans-3-[(4-chloro-2-fluorobenzyl)oxy]-N-[3-(4-ethyl-6-oxo-1,6-dihydropyrimidin-2-yl)-2-fluoro-4-(trifluoromethyl)benzyl]cyclobutane-1-carboxamide]
< 1 nM	O=c1cc(C(F)F)nc(-c2c(C(F)(F)F)ccc(CNC(=O)[C@H]3C[C@H](OCc4cccc(Cl)c4)C3)c2F)[nH]1 [Example 162, trans-3-[(3-chlorobenzyl)oxy]-N-{3-[4-(difluoromethyl)-6-oxo-1,6-dihydropyrimidin-2-yl]-2-fluoro-4-(trifluoromethyl)benzyl}cyclobutane-1-carboxamide]
< 1 nM	O=c1cc(C(F)F)nc(-c2c(C(F)(F)F)ccc(CNC(=O)[C@H]3C[C@H](OCc4ccc(F)c(Cl)c4)C3)c2F)[nH]1 [Example 176, trans-3-[(3-chloro-4-fluorobenzyl)oxy]-N-{3-[4-(difluoromethyl)-6-oxo-1,6-dihydropyrimidin-2-yl]-2-fluoro-4-(trifluoromethyl)benzyl}cyclobutane-1-carboxamide]
< 1 nM	CCc1cc(=O)[nH]c(-c2c(C(F)(F)F)ccc(CNC(=O)[C@H]3C[C@H](OCc4ccc(F)c(F)c4)C3)c2F)n1 [Example 203, trans-3-[(3,4-difluorobenzyl)oxy]-N-[3-(4-ethyl-6-oxo-1,6-dihydropyrimidin-2-yl)-2-fluoro-4-(trifluoromethyl)benzyl]cyclobutane-1-carboxamide]
< 1 nM	O=c1cc(C(F)F)nc(-c2c(C(F)(F)F)ccc(CNC(=O)[C@H]3C[C@H](OCc4ccc(Cl)cc4F)C3)c2F)[nH]1 [Example 168, trans-3-[(4-chloro-2-fluorobenzyl)oxy]-N-{3-[4-(difluoromethyl)-6-oxo-1,6-dihydropyrimidin-2-yl]-2-fluoro-4-(trifluoromethyl)benzyl}cyclobutane-1-carboxamide]
< 1 nM	Cc1nc(-c2c(C(F)(F)F)ccc(CNC(=O)[C@H]3C[C@H](OCc4cccc(Cl)c4)C3)c2F)[nH]c(=O)c1C [Example 246, trans-3-[(3-chlorobenzyl)oxy]-N-[3-(4,5-dimethyl-6-oxo-1,6-dihydropyrimidin-2-yl)-2-fluoro-4-(trifluoromethyl)benzyl]cyclobutane-1-carboxamide]
3.7 nM	CCc1cc(=O)[nH]c(-c2c(C(F)(F)F)ccc(CNC(=O)[C@H]3C[C@H](OCc4ccc(Cl)cc4)C3)c2F)n1 [Example 197, trans-3-[(4-chlorobenzyl)oxy]-N-[3-(4-ethyl-6-oxo-1,6-dihydropyrimidin-2-yl)-2-fluoro-4-(trifluoromethyl)benzyl]cyclobutane-1-carboxamide]
< 12 nM	O=c1cc(C(F)(F)F)nc(-c2c(C(F)(F)F)ccc(CNC(=O)[C@H]3C[C@H](OCc4cc(F)cc(Cl)c4)C3)c2F)[nH]1 [Example 159, trans-3-[(3-chloro-5-fluorobenzyl)oxy]-N-{2-fluoro-3-[6-oxo-4-(trifluoromethyl)-1,6-dihydropyrimidin-2-yl]-4-(trifluoromethyl)benzyl}cyclobutane-1-carboxamide]
< 1 nM	O=c1cc(C(F)(F)F)nc(-c2c(C(F)(F)F)ccc(CNC(=O)[C@H]3C[C@H](OCc4ccc(Cl)cc4F)C3)c2F)[nH]1 [Example 149, trans-3-[(4-chloro-2-fluorobenzyl)oxy]-N-{2-fluoro-3-[6-oxo-4-(trifluoromethyl)-1,6-dihydropyrimidin-2-yl]-4-(trifluoromethyl)benzyl}cyclobutane-1-carboxamide]
3.6 nM	Cc1cc(=O)[nH]c(-c2c(C(F)(F)F)ccc(CNC(=O)[C@H]3C[C@H](OCc4cc(F)cc(Cl)c4)C3)c2F)n1 [Example 194, trans-3-[(3-chloro-5-fluorobenzyl)oxy]-N-[2-fluoro-3-(4-methyl-6-oxo-1,6-dihydropyrimidin-2-yl)-4-(trifluoromethyl)benzyl]cyclobutane-1-carboxamide]
< 1 nM	Cc1cc(=O)[nH]c(-c2c(C(F)(F)F)ccc(CNC(=O)[C@H]3C[C@H](OCc4ccc(F)cc4Cl)C3)c2F)n1 [Example 190, trans-3-[(2-chloro-4-fluorobenzyl)oxy]-N-[2-fluoro-3-(4-methyl-6-oxo-1,6-dihydropyrimidin-2-yl)-4-(trifluoromethyl)benzyl]cyclobutane-1-carboxamide]

Continued, compound first:

Compound	IC50
CCc1cc(=O)[nH]c(-c2c(C(F)(F)F)ccc(CNC(=O)[C@H]3C[C@H](OCc4cccc(C(F)(F)F)c4)C3)c2F)n1 [Example 199, trans-N-[3-(4-ethyl-6-oxo-1,6-dihydropyrimidin-2-yl)-2-fluoro-4-(trifluoromethyl)benzyl]-3-{[3-(trifluoromethyl)benzyl]oxy}cyclobutane-1-carboxamide]	1.1 nM
O=C(NCc1ccc(C(F)(F)F)c(-c2nc(C(F)(F)F)cc(=O)[nH]2)c1F)C1Cc2ccccc2C1 [Example 280, N-{2-fluoro-3-[6-oxo-4-(trifluoromethyl)-1,6-dihydropyrimidin-2-yl]-4-(trifluoromethyl)benzyl}-2,3-dihydro-1H-indene-2-carboxamide]	< 1 nM
